Laboratory results taken from US6605635B1, “N-substituted benzyl or phenyl aromatic sulfamides compounds and the use thereof” (Shanghai Institute of Materia Medica Chinese Academy of …, priority 1999, dated 2003).

Key:
[1] = tested on: rat aconitine-induced arrhythmia; type: in vivo, rats; settings: hydrochloride salts; for Prophylactic inde: ratio LD50:ED50, rats; for Therapeutic ind: ratio LD50:ED, rats
[2] = tested on: ouabain induced guinea pig arrhythmia; assay: ouabain induced guinea pig arrhythmia model; type: in vivo
[3] = tested on: acute myocardial ischemia induced arrhythmia; assay: acute myocardial ischemia induced arrhythmia model (coronary artery ligation) in anesthetized rats; type: in vivo
Description: 1. An acute myocardial ischemia induced arrhythmia model was obtained by conducting chest opening to expose the heart and […] of the anterior descending branch of the coronary artery in anesthetized rats (“Methods in Pharmacological Experiments”, Second Edition, p. 1022, People's Medical Publishing House, Beijing, 1991).

[4] = tested on: arrhythmia patients; settings: cited from earlier work
[5] = tested on: beiwutine induced rat arrhythmia; assay: beiwutine induced rat arrhythmia model; type: in vivo

Molecule	Prophylactic inde [1]	Therapeutic ind [1]	also measured
O=S(=O)(Nc1cc(CN2CCCCC2)c(O)c(CN2CCCCC2)c1)c1cccc2ccccc12 [Compound B-87836, N-[3,5-bis(1-Piperidinomethyl)-4-hydroxy]phenyl-1-naphthalenesulfonamide]	33.5	9.7	–
Oc1c(CN2CCCC2)cc(Nc2ncnc3ccccc23)cc1CN1CCCC1 [changrolin]	–	–	amount of ouabain used for inducing ventrical premature beats, ventricular tachycardia and ventricular fibrillation [2]: significantly increase; inhibition of the incidence of ventrical premature beats [3]: 50%; ventricular premature beats ([4]; 2-3 days after oral administration, patients suffering from arrhythmia): disappear; ventricular premature beats and ventricular tachycardia ([4]; i.v. injection or instillation, patients): significant reduction or even disappearence; skin side effect ([4]; oral administration for over one month, patients, retrogresses after ceasing administration): reversible pigmentation on the skin; ED50 [5]: 3 mg/kg
N-[3,5-bis(1 -Pyrrolidinomethyl)-4-hydroxyl]benzyl-4-chlorobenzenesulfonamide [Compound B-87829]	55	8.6	–
N-[3,5-bis(1-Pyrrolidinomethyl)-4-hydroxy]phenyl-4-chlorobenzenesulfonamide [Compound B-86810]	5.3	–	–
N-[3,5-bis(1-Pyrrolidinomethyl)-4-hydroxy]phenyl-N-ethyl-4-toluenesulfonamide [Compound B-86809]	1.1	4.0	–
N-[3,5-bis(1-Pyrrolidinomethyl)-4-hydroxy]phenyl-N-methyl-4-acetamidobenzenesulfonamide [Compound B-87827]	3.0	2	–
